Target: T1, BRAF V600E (Homo sapiens, UniProt P15056, V600E)
T1 construct: endogenous C-terminal HiBiT fusion tag on BRAF V600E allele; endogenous in cells; host or cells: A375 clone 1F10 (CRISPR-Cas9 knock-in of the HiBiT tag; parental A375 from ATCC)
Test: BRAF HiBiT degradation assay, C-terminal HiBiT-tagged BRAF V600E A375 cells (clone 1F10), Nano-Glo HiBiT Lytic assay
Format: cell-based
Conditions: for Dmax: A-375
How it was run: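 Endogenous BRAF V600E-HiBiT A375 (1F10), 10,000 cells/well, 24 h preculture; cpd 11-pt, 1 μM–0.01 nM half-log, n=2, 0.2% DMSO; HiBiT lytic detection 10 min RT; DC50 = fitted conc at Y=50; Obs. Dmax vs DMSO.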

[1] = A375 (BRAF V600E), DC50 at 50%: fitted conc. at Y=50
[2] = A375 (BRAF V600E), percentage protein degraded at maximal compound effect relative to DMSO
[3] = A375 (BRAF V600E, Class 1), DC50 at 50% degradation
[4] = A375 (BRAF V600E, Class 1), observed Dmax, % protein degraded relative to DMSO control

T1 sequence (P15056 whole entry V600E, the tested form may be a part): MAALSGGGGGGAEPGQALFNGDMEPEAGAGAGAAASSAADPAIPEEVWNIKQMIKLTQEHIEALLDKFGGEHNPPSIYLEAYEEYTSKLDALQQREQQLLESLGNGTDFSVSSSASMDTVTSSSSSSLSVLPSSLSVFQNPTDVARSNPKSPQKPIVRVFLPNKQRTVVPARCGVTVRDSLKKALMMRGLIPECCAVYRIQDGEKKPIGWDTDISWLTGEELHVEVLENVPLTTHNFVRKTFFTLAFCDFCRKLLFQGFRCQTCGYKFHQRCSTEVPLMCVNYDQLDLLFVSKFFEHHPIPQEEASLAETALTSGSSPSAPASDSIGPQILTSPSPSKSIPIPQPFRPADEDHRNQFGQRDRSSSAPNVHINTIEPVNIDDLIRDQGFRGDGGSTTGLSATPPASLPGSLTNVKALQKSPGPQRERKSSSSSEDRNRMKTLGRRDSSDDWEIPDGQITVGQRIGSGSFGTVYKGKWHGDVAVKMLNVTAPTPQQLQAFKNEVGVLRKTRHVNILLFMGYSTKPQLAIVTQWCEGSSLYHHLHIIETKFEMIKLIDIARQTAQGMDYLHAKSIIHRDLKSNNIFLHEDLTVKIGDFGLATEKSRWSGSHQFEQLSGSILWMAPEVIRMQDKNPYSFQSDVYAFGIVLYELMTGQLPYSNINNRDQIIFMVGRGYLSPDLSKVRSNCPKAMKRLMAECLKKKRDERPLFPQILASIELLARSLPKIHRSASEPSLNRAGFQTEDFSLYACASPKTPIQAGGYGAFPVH

| SMILES | DC50 [1] [nM] | Dmax [2] [%] | DC50 [3] [nM] | Dmax [4] [%] |
| --- | --- | --- | --- | --- |
| CCCS(=O)(=O)Nc1cccc(-c2nc(C)sc2-c2ccnc(Nc3ccc(N4CCN(CC5CCN(c6ccc([C@H]7CCC(=O)NC7=O)cc6)CC5)CC4)cn3)n2)c1F [Compound 60, N-[3-(5-{2-[(5-{4-[(1-{4-[(3R)-2,6-dioxopiperidin-3-yl]phenyl}piperidin-4-yl)methyl]piperazin-1-yl}pyridin-2-yl)amino]pyrimidin-4-yl}-2-methyl-1,3-thiazol-4-yl)-2-fluorophenyl]propane-1-sulfonamide] | 10 to 50 | > 70 |  |  |
| CCCS(=O)(=O)Nc1cccc(-c2nc(C3CCC4(CC3)CCN(C(=O)CN3CCN(c5ccc6c(c5)C(=O)N(C5CCC(=O)NC5=O)C6=O)CC3)CC4)sc2-c2ccnc(N)n2)c1F (racemic) [Compound 231, Rac-N-{3-[5-(2-aminopyrimidin-4-yl)-2-{3-[2-(4-{2-[(3R)-2,6-dioxopiperidin-3-yl]-1,3-dioxo-2,3-dihydro-1H-isoindol-5-yl}piperazin-1-yl)acetyl]-3-azaspiro[5.5]undecan-9-yl}-1,3-thiazol-4-yl]-2-fluorophenyl}propane-1-sulfonamide] | < 10 | 30 to 70 |  |  |
| CCCS(=O)(=O)Nc1cccc(-c2nc(C3CCC4(CC3)CCN(C(=O)C[C@H]3CCN(c5ccc(C6CCC(=O)NC6=O)cc5)C3)CC4)sc2-c2ccnc(N)n2)c1F (mixture of isomers) [Compound 253, N-{3-[5-(2-aminopyrimidin-4-yl)-2-(3-{2-[(3R)-1-{4-[(3RS)-2,6-dioxopiperidin-3-yl]phenyl}pyrrolidin-3-yl]acetyl}-3-azaspiro[5.5]undecan-9-yl)-1,3-thiazol-4-yl]-2-fluorophenyl}propane-1-sulfonamide] |  |  | 10 to 50 | 30 to 70 |
| CCCS(=O)(=O)Nc1cccc(-c2nc(C(C)(C)C)sc2-c2ccnc(NCC(C)(C)C3CCN(CC4CCN(c5ccc([C@H]6CCC(=O)NC6=O)cc5)CC4)CC3)n2)c1F [Compound 144, N-[3-(2-tert-butyl-5-{2-[(2-{1-[(1-{4-[(3R)-2,6-dioxopiperidin-3-yl]phenyl}piperidin-4-yl)methyl]piperidin-4-yl}-2-methylpropyl)amino]pyrimidin-4-yl}-1,3-thiazol-4-yl)-2-fluorophenyl]propane-1-sulfonamide] | 50 to 500 | 30 to 70 |  |  |
| CCCS(=O)(=O)Nc1cccc(-c2cn(-c3ccc(N4CCN(CC5CCN(c6ccc([C@@H]7CCC(=O)NC7=O)cn6)CC5)CC4)cc3)nc2-c2ccncc2)c1F [Compound 1, N-{3-[1-(4-{4-[(1-{5-[(3S)-2,6-dioxopiperidin-3-yl]pyridin-2-yl}piperidin-4-yl)methyl]piperazin-1-yl}phenyl)-3-(pyridin-4-yl)-1H-pyrazol-4-yl]-2-fluorophenyl}propane-1-sulfonamide] | 10 to 50 | > 70 |  |  |
| CCCS(=O)(=O)Nc1cccc(-c2nc(C)sc2-c2ccnc(Nc3ccc(C4CCN(CC5CCN(c6ccc([C@@H]7CCC(=O)NC7=O)cc6)CC5)CC4)cc3)n2)c1F [Compound 64, N-[3-(5-{2-[(4-{1-[(1-{4-[(3S)-2,6-dioxopiperidin-3-yl]phenyl}piperidin-4-yl)methyl]piperidin-4-yl}phenyl)amino]pyrimidin-4-yl}-2-methyl-1,3-thiazol-4-yl)-2-fluorophenyl]propane-1-sulfonamide] | 10 to 50 | > 70 |  |  |
| O=C1CC[C@H](c2ccc(N3CCC(CN4CCN(c5ccc(-n6cc(-c7cc(F)cc(NS(=O)(=O)N8CCCC8)c7F)c(-c7ccncc7)n6)c(F)c5)CC4)CC3)cc2)C(=O)N1 [Compound 340, N-{3-[1-(4-{4-[(1-{4-[(3R)-2,6-dioxopiperidin-3-yl]phenyl}piperidin-4-yl)methyl]piperazin-1-yl}-2-fluorophenyl)-3-(pyridin-4-yl)-1H-pyrazol-4-yl]-2,5-difluorophenyl}pyrrolidine-1-sulfonamide] |  |  | < 10 | > 70 |
| CCCS(=O)(=O)Nc1cccc(-c2nc(C3(C)CCN(C(=O)CC4CCN(C5CCN(c6ccc7c(c6)C(=O)N(C6CCC(=O)NC6=O)C7=O)CC5)CC4)CC3)sc2-c2ccnc(N)n2)c1F (racemic) [Compound 249, Rac-N-{3-[5-(2-aminopyrimidin-4-yl)-2-{1-[2-(1′-{2-[(3R)-2,6-dioxopiperidin-3-yl]-1,3-dioxo-2,3-dihydro-1H-isoindol-5-yl}-[1,4′-bipiperidin]-4-yl)acetyl]-4-methylpiperidin-4-yl}-1,3-thiazol-4-yl]-2-fluorophenyl}propane-1-sulfonamide] |  |  | 50 to 500 | 30 to 70 |
| CCCS(=O)(=O)Nc1cccc(-c2nc(-c3ccc(N4CCN(C(=O)C5CCN(c6ccc(C7CCC(=O)NC7=O)cn6)CC5)CC4)cc3)sc2-c2ccnc(N)n2)c1F (racemic) [Compound 188, Rac-N-{3-[5-(2-aminopyrimidin-4-yl)-2-{4-[4-(1-{5-[(3R)-2,6-dioxopiperidin-3-yl]pyridin-2-yl}piperidine-4-carbonyl)piperazin-1-yl]phenyl}-1,3-thiazol-4-yl]-2-fluorophenyl}propane-1-sulfonamide] | < 10 | > 70 |  |  |
| CCCS(=O)(=O)Nc1cccc(-c2nc(C(C)(C)C)sc2-c2ccnc(NC3CC4(C3)CN(C(=O)CCCCCc3ccc5c(c3)C(=O)N(C3CCC(=O)NC3=O)C5)C4)n2)c1F (racemic) [Compound 150, Rac-N-{3-[2-tert-butyl-5-(2-{[2-(6-{2-[(3R)-2,6-dioxopiperidin-3-yl]-3-oxo-2,3-dihydro-1H-isoindol-5-yl}hexanoyl)-2-azaspiro[3.3]heptan-6-yl]amino}pyrimidin-4-yl)-1,3-thiazol-4-yl]-2-fluorophenyl}propane-1-sulfonamide] | 50 to 500 | 30 to 70 |  |  |
| CCCS(=O)(=O)Nc1cccc(-c2nc(C)sc2-c2ccnc(Nc3ccc(N4CCN(CC5(C)CCN(c6ccc(C7CCC(=O)NC7=O)cn6)CC5)CC4)cc3)n2)c1F (racemic) [Compound 32, Rac-N-[3-(5-{2-[(4-{4-[(1-{5-[(3R)-2,6-dioxopiperidin-3-yl]pyridin-2-yl}-4-methylpiperidin-4-yl)methyl]piperazin-1-yl}phenyl)amino]pyrimidin-4-yl}-2-methyl-1,3-thiazol-4-yl)-2-fluorophenyl]propane-1-sulfonamide] | < 10 | > 70 |  |  |
| CCCS(=O)(=O)Nc1cccc(-c2nc(C3CCN(C(=O)C4(C)CCN(C(=O)C5CCN(c6ccc(C7CCC(=O)NC7=O)cc6)CC5)CC4)CC3)sc2-c2ccncn2)c1F (racemic) [Compound 178, Rac-N-[3-(2-{1-[1-(1-{4-[(3R)-2,6-dioxopiperidin-3-yl]phenyl}piperidine-4-carbonyl)-4-methylpiperidine-4-carbonyl]piperidin-4-yl}-5-(pyrimidin-4-yl)-1,3-thiazol-4-yl)-2-fluorophenyl]propane-1-sulfonamide] | < 10 | > 70 |  |  |
| O=C1CCC(c2ccc(N3CCC(CN4CCN(c5cnc(-n6cc(-c7cc(F)cc(NS(=O)(=O)N8CCCC8)c7F)c(-c7ccncc7)n6)nc5)CC4)CC3)nc2)C(=O)N1 (racemic) [Compound 343, Rac-N-{3-[1-(5-{4-[(1-{5-[(3R)-2,6-dioxopiperidin-3-yl]pyridin-2-yl}piperidin-4-yl)methyl]piperazin-1-yl}pyrimidin-2-yl)-3-(pyridin-4-yl)-1H-pyrazol-4-yl]-2,5-difluorophenyl}pyrrolidine-1-sulfonamide] |  |  | < 10 | > 70 |
| CCCS(=O)(=O)Nc1cccc(-c2nc(C(C)(C)C)sc2-c2ccnc(Nc3ccc(C4CCN(C(=O)C5CCN(CC6CCN(c7ccc(C8CCC(=O)NC8=O)cn7)CC6)CC5)CC4)cc3)n2)c1F (racemic) [Compound 175, Rac-N-{3-[2-tert-butyl-5-(2-{[4-(1-{1-[(1-{5-[(3R)-2,6-dioxopiperidin-3-yl]pyridin-2-yl}piperidin-4-yl)methyl]piperidine-4-carbonyl}piperidin-4-yl)phenyl]amino}pyrimidin-4-yl)-1,3-thiazol-4-yl]-2-fluorophenyl}propane-1-sulfonamide] | 10 to 50 | 30 to 70 |  |  |
| CCCS(=O)(=O)Nc1cccc(-c2nc(C(C)(C)C)sc2-c2ccnc(NCC3CCN(CC4CCN(c5ccc([C@H]6CCC(=O)NC6=O)cc5)CC4)CC3)n2)c1F [Compound 145, N-[3-(2-tert-butyl-5-{2-[({1-[(1-{4-[(3R)-2,6-dioxopiperidin-3-yl]phenyl}piperidin-4-yl)methyl]piperidin-4-yl}methyl)amino]pyrimidin-4-yl}-1,3-thiazol-4-yl)-2-fluorophenyl]propane-1-sulfonamide] | > 500 | 30 to 70 |  |  |
| CCCS(=O)(=O)Nc1cccc(-c2nc(C3CCN(C(=O)CN4CCN(c5ccc6c(c5)C(=O)N(C5CCC(=O)NC5=O)C6=O)CC4)CC3)sc2-c2ccnc(N)n2)c1F (racemic) [Compound 233, Rac-N-{3-[5-(2-aminopyrimidin-4-yl)-2-{1-[2-(4-{2-[(3R)-2,6-dioxopiperidin-3-yl]-1,3-dioxo-2,3-dihydro-1H-isoindol-5-yl}piperazin-1-yl)acetyl]piperidin-4-yl}-1,3-thiazol-4-yl]-2-fluorophenyl}propane-1-sulfonamide] | 10 to 50 | 30 to 70 |  |  |
| CCCS(=O)(=O)Nc1cccc(-c2nc(C3CCC4(CC3)CN(C(=O)C3CN(C5CCN(c6ccc7c(c6)C(=O)N(C6CCC(=O)NC6=O)C7=O)CC5)C3)C4)sc2-c2ccnc(N)n2)c1F (racemic) [Compound 241, Rac-N-{3-[5-(2-aminopyrimidin-4-yl)-2-{2-[1-(1-{2-[(3R)-2,6-dioxopiperidin-3-yl]-1,3-dioxo-2,3-dihydro-1H-isoindol-5-yl}piperidin-4-yl)azetidine-3-carbonyl]-2-azaspiro[3.5]nonan-7-yl}-1,3-thiazol-4-yl]-2-fluorophenyl}propane-1-sulfonamide] | < 10 | > 70 |  |  |

— patent US20260317324A1, “BIFUNCTIONAL COMPOUNDS FOR DEGRADING BRAF VIA UBIQUITIN PROTEOSOME PATHWAY” (Nurix Therapeutics, Inc., priority 2023, published 2026)
